Reference: paper PMC11062922 (Nature Chemical Biology, 2023)
Several values for one entry are separate records, joined by “and”; a condition that tells them apart may be missing. Identical values can stand only once. Like-named read-outs stand apart in the source and are kept apart here. Blank lines part the entries; values can stand above or below the compound they belong to.

Tests used:
PIK3CG = target: T1, PIK3CG (Homo sapiens, UniProt P48736); assay: Kinobeads two-dose competition binding: PIK3CG; conditions: sheet "Kinobeads Drugmatrix-nanomolar2" (compounds in rows); read-out: Kinobeads Drugmatrix-nanomolar2: apparent Kd, PIK3CG
T1 construct: endogenous in cells
Source text: Supplement 41589_2023_1459_MOESM3_ESM.xlsx, sheet "Kinobeads Drugmatrix-nanomolar2" | column: PIK3CG

CSNK1E = target: T2, CSNK1E (Homo sapiens, UniProt P49674); assay: Kinobeads full dose-response competition binding: CSNK1E; conditions: Gene Name CSNK1E
T2 construct: endogenous in cells

PRKCD = target: T3, PRKCD (Homo sapiens, UniProt Q05655); assay: Kinobeads full dose-response competition binding: PRKCD; conditions: Gene Name PRKCD
T3 construct: endogenous in cells

PRKACB = target: T4, PRKACB (Homo sapiens, UniProt P22694); assay: Kinobeads full dose-response competition binding: PRKACB; conditions: Gene Name PRKACB
T4 construct: endogenous in cells

EPHA2 = target: T5, EPHA2 (Homo sapiens, UniProt P29317); assay: Kinobeads two-dose competition binding: EPHA2; conditions: read-out: Lestaurtinib Drugmatrix value, Gene Name EPHA2
T5 construct: endogenous in cells

ERCC2 = assay: Kinobeads two-dose competition binding: ERCC2; parameters: species or system human; conditions: read-out: Lestaurtinib Drugmatrix value, Gene Name ERCC2; target ERCC2; each column = one Lestaurtinib control replicate (batch_R1-R3)
CSNK2A1 = target: T6, CSNK2A1 (Homo sapiens, UniProt P68400); assay: NanoBRET in-cell target engagement in HEK293T cells: CSNK2A1; type: cell-based
T6 construct: full-length PKN3, CSNK2A1 or CSNK2A2 ORF; host or cells: HEK293T
Procedure: The NanoBRET assay was performed as described previously[28],[58]. In brief, full-length PKN3, CSNK2A1 or CSNK2A2 ORF (PKN3 vector was a kind gift of Promega, Vectors for […]: NV2981, NV1191) cloned in frame with a C-terminal NanoLuc-fusion, respectively, were transfected into HEK293T cells using FuGENE HD (Promega, E2312) and proteins were allowed to express for 20 h. Serially diluted inhibitor and NanoBRET Kinase Tracer K5 (Promega, N2530) at 500 nM (PKN3) or NanoBRET Kinase Tracer K10 (Promega, N2840) at 500 nM ([…]) were pipetted into 384-well plates using an Echo acoustic dispenser (Labcyte). The PKN3, CSNK2A1 or CSNK2A2 transfected cells were added at a density of 2 × 10^5 cells per ml after trypsinization and resuspending in Opti-MEM without phenol red (Life Technologies). The system was allowed to equilibrate for 2 h at 37 °C and 5% CO2 before BRET measurements. BRET signaling was measured by adding NanoBRET NanoGlo Substrate and Extracellular NanoLuc Inhibitor (Promega) according to the manufacturer’s protocol. Filtered luminescence was measured on a PHERAstar plate reader (BMG Labtech) equipped with a luminescence filter pair (450 nm BP filter (donor) and 610 LP filter (acceptor)). Competitive displacement data were then graphed using GraphPad Prism software (v.5.01) using a three-parameter curve fit with the following equation Y=bottom+(top−bottom)/1+10^logIC50−X×hillslope
Experiments were performed with at least two biological and two technical replicates.

[1] = EC50 with Correction, doses in nM, read-out: apparent Kd
[2] = eight-dose curve fit, doses in nM

T6 sequence (P68400 whole entry): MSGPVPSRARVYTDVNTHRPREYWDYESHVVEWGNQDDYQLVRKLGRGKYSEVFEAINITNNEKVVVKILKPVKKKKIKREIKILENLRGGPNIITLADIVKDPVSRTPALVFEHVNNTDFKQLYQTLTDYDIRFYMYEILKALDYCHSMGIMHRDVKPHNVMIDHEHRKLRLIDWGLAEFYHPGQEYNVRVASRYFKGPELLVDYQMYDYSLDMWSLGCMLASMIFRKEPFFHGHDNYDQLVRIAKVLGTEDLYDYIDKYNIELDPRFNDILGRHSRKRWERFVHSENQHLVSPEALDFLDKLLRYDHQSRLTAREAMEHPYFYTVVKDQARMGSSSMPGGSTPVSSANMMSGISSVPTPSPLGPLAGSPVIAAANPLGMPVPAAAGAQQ
T2 sequence (P49674 whole entry): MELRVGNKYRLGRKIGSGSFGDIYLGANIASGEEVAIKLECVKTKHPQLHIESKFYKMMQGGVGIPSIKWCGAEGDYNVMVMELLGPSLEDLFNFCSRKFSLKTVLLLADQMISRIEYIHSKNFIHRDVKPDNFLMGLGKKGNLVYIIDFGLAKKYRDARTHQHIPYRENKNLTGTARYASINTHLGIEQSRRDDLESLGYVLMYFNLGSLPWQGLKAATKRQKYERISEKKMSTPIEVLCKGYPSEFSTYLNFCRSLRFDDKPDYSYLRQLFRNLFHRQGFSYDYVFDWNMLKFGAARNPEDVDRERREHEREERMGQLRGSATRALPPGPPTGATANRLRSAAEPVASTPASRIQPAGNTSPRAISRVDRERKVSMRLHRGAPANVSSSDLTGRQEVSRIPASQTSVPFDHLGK
T3 sequence (Q05655 whole entry): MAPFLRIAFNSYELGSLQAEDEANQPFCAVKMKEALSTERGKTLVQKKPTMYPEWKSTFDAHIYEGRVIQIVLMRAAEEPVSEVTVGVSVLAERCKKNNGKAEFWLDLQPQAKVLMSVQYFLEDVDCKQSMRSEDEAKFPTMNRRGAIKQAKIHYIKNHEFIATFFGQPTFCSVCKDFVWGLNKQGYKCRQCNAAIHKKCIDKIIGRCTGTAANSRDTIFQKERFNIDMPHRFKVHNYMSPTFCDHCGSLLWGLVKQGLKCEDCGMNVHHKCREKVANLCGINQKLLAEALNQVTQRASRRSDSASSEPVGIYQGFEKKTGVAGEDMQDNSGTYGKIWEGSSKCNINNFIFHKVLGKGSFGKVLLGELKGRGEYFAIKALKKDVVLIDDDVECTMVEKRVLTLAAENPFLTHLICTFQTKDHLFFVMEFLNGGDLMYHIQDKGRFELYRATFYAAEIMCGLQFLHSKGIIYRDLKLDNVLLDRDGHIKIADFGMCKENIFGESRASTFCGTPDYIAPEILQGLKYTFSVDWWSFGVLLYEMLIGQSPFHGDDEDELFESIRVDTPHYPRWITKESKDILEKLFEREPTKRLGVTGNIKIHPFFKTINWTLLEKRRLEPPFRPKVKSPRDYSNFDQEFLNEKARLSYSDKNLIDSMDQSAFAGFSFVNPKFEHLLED
T5 sequence (P29317 24-976): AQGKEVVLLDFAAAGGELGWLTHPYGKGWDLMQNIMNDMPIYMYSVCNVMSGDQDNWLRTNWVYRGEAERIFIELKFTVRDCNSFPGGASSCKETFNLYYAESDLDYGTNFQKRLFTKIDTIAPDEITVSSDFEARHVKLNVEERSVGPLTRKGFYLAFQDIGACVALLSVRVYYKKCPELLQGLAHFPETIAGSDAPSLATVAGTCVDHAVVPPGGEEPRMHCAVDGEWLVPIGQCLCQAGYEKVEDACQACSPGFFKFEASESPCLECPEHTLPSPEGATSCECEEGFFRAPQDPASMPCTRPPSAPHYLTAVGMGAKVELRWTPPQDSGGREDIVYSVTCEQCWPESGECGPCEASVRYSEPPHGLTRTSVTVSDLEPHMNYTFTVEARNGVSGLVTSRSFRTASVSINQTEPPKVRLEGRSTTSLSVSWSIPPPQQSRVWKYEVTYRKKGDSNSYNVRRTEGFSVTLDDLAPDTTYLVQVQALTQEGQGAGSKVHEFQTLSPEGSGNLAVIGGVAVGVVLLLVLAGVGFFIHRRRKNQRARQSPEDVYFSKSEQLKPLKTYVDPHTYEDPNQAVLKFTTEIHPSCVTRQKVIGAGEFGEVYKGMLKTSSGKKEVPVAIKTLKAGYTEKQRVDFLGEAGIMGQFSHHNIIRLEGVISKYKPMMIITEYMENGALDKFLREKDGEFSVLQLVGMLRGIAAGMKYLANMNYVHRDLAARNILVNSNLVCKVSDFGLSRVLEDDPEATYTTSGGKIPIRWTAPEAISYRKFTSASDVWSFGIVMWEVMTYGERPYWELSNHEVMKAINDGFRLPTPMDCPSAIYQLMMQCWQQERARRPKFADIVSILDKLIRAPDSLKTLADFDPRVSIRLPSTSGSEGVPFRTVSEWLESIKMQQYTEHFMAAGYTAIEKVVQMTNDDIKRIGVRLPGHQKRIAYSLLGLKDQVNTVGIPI
T1 sequence (P48736 whole entry): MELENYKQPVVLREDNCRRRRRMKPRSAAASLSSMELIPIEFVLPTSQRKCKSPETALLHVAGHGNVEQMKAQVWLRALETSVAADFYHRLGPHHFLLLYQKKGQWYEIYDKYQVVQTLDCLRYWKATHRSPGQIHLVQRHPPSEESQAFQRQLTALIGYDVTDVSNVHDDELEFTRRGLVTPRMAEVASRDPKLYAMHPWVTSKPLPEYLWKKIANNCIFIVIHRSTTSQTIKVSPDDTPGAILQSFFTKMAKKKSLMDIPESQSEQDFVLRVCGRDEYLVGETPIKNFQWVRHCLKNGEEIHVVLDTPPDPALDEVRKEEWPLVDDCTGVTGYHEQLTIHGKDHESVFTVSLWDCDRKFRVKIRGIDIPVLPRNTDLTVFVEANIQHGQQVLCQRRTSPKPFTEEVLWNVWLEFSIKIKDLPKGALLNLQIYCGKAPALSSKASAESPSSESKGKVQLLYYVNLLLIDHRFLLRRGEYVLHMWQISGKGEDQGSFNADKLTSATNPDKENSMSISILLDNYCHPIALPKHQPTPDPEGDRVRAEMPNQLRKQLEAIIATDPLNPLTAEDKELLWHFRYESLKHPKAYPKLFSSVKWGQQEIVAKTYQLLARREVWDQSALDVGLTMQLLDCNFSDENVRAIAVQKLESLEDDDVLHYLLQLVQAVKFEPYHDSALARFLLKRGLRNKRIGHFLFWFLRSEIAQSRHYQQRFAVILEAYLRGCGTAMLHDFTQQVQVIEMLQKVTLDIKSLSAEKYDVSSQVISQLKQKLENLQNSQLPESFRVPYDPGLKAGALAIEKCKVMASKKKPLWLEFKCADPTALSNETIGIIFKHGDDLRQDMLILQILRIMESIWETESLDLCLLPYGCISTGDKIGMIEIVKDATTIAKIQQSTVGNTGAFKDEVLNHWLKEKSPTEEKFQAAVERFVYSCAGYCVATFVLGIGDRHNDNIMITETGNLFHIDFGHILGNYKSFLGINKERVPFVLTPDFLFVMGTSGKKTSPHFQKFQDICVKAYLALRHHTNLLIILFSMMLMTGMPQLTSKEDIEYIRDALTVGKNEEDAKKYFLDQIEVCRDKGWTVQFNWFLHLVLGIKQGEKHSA

- potency estimated from few doses (PIK3CG): 109 nM
SMILES: CC(C)N1CC(=O)N(C)c2cnc(Nc3cccc(S(=O)(=O)CCN4CCOCC4)c3)nc21 [BI00009348]

SMILES: NCc1ccc(-c2nc(-c3ccncc3)c(-c3ccc(Cl)c(O)c3)[nH]2)cc1 [SB-476429-A]
- Relative Intensity 0.3nM (CSNK1E; 0.3nM compound, DMSO = 1): 1.09
- Relative Intensity 1nM (CSNK1E; 1nM compound, DMSO = 1): 1.082
- Relative Intensity 3nM (CSNK1E; 3nM compound, DMSO = 1): 1.034
- Relative Intensity 10nM (CSNK1E; 10nM compound, DMSO = 1): 1.047
- Relative Intensity 30nM (CSNK1E; 30nM compound, DMSO = 1): 0.8419
- Relative Intensity 100nM (CSNK1E; 100nM compound, DMSO = 1): 0.9482
- Relative Intensity 300nM (CSNK1E; 300nM compound, DMSO = 1): 0.7771
- Relative Intensity 1000nM (CSNK1E; 1000nM compound, DMSO = 1): 0.494
- Kd (CSNK1E; [1]): 642 nM
- EC50 (CSNK1E; [2]): 642 nM

- Relative Intensity 0.3nM (PRKCD; 0.3nM compound, DMSO = 1): 0.9769
- Relative Intensity 1nM (PRKCD; 1nM compound, DMSO = 1): 1.01
- Relative Intensity 3nM (PRKCD; 3nM compound, DMSO = 1): 1.114
- Relative Intensity 10nM (PRKCD; 10nM compound, DMSO = 1): 1.044
- Relative Intensity 30nM (PRKCD; 30nM compound, DMSO = 1): 0.8254
- Relative Intensity 100nM (PRKCD; 100nM compound, DMSO = 1): 0.6161
- Relative Intensity 300nM (PRKCD; 300nM compound, DMSO = 1): 0.3888
- Relative Intensity 1000nM (PRKCD; 1000nM compound, DMSO = 1): 0.1734
- Kd (PRKCD; [1]): 124 nM
- EC50 (PRKCD; [2]): 124 nM
- Relative Intensity 0.3nM (PRKACB; 0.3nM compound, DMSO = 1): 0.9369
- Relative Intensity 1nM (PRKACB; 1nM compound, DMSO = 1): 1.09
- Relative Intensity 3nM (PRKACB; 3nM compound, DMSO = 1): 1.112
- Relative Intensity 10nM (PRKACB; 10nM compound, DMSO = 1): 0.9825
- Relative Intensity 30nM (PRKACB; 30nM compound, DMSO = 1): 0.9287
- Relative Intensity 100nM (PRKACB; 100nM compound, DMSO = 1): 0.758
- Relative Intensity 300nM (PRKACB; 300nM compound, DMSO = 1): 0.7526
- Relative Intensity 1000nM (PRKACB; 1000nM compound, DMSO = 1): 0.5592
- Kd (PRKACB; [1]): 145 nM
- EC50 (PRKACB; [2]): 145 nM
SMILES: CCn1c(-c2nonc2N)nc2c(C#CC(C)(C)O)nc(OCCN)cc21 [GSK902056A]

SMILES: C[C@]12O[C@H](C[C@]1(O)CO)n1c3ccccc3c3c4c(c5c6ccccc6n2c5c31)CNC4=O [Lestaurtinib]
- potency estimated from few doses (EPHA2): 428 nM
- potency estimated from few doses (ERCC2): 161 nM and 261 nM

SMILES: COc1cc(Nc2ncc3c(C)nc(-c4cc5ccccc5[nH]4)n3n2)cc(OC)c1OC [GW869516X]
- IC50 (CSNK2A1; CSNK2A1, replicate 1, read-out: NanoBRET Rep1): 471 nM
- IC50 (CSNK2A1; CSNK2A1, replicate 2, read-out: NanoBRET Rep2): 421 nM
- IC50 (CSNK2A1; HEK293T cells, in-cell target engagement, read-out: IC50 CSNK2A1 NanoBRET): 446 nM
